According to ChEMBL document CHEMBL1201862, “PubChem BioAssay data set” (2004):
Calls of active or inactive are those of the source.

Assays:
[1] = target: T1, Ubiquitin-conjugating enzyme E2 N (Homo sapiens, UniProt P61088); type: functional;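 also: Dose-response confirmation in a TR-FRET assay detecting UBC13-driven polyubiquitin chain formation, inhibition measured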
T1 sequence (P61088 whole entry): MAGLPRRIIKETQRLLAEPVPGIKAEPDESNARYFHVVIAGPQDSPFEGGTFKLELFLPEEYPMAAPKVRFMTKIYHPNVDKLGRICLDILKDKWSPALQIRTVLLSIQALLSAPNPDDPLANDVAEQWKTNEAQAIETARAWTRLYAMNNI

[2] = target: T2, Calpain-2 catalytic subunit (Sus scrofa, UniProt P43367); experiment: m-calpain protease blockers, concentration series – biochemical, fluorogenic peptide substrate, dose response (AID 1420); type: functional
T2 sequence (P43367 whole entry): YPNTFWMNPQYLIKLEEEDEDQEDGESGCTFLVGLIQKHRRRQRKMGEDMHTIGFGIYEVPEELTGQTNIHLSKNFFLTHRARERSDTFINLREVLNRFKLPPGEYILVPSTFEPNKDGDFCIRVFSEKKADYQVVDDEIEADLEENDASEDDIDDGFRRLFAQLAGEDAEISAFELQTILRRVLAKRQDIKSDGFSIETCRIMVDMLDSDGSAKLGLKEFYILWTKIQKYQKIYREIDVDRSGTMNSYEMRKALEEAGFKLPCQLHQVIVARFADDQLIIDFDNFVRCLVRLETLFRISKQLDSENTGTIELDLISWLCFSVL

Paired box protein Pax-8 = Paired box protein Pax-8 (Homo sapiens, UniProt Q06710); experiment: PAX8 transcriptional activity inhibition in RMG-I – RMG-I cells, luciferase, cherry-pick, dose response (AID 687027); type: functional, cell-based;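 also: luciferase reporter driven by Pax8 target thyroperoxidase promoter measured by SteadyGlo luminescence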
[3] = target: T3, Rac GTPase-activating protein 1 (Homo sapiens, UniProt Q9H0H5); experiment: blockers of MgcRacGAP-driven Rac1 GTP hydrolysis – biochemical, ADP Hunter fluorescence, primary and confirmatory, confirmation (AID 624330); type: functional
T3 sequence (Q9H0H5 whole entry): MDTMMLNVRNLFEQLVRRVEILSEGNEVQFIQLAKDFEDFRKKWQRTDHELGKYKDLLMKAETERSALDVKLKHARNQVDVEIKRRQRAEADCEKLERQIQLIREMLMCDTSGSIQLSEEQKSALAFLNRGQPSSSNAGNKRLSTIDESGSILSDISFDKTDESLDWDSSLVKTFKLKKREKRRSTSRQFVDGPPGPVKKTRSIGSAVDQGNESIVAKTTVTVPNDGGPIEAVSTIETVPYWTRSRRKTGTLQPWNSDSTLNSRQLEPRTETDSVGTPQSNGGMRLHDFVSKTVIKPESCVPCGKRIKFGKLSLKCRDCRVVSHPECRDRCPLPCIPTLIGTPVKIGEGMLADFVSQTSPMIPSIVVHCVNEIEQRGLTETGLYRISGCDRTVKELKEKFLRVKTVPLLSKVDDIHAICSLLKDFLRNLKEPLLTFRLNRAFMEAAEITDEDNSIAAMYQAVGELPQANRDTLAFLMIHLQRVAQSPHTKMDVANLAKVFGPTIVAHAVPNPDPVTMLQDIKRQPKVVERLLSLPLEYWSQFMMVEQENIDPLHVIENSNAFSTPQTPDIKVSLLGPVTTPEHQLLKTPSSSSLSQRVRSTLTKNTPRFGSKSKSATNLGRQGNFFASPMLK

[4] = fluconazole-exposed Candida albicans growth modulators – fluorescence, retest, confirmation (AID 2467); type: functional, cell-based
[5] = NIH-3T3 fibroblast cytotoxicity, dose response, cytotoxicity control, cell-based, fluorescence, Alamar Blue, secondary assay (AID 2327); type: functional;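 also: NIH-3T3 mouse fibroblasts cultured with fluconazole at 8 µg/mL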
Leucine aminopeptidase = target: T4, Leucine aminopeptidase (Plasmodium falciparum 3D7, UniProt Q8IL11); experiment: P. falciparum M17LAP inhibitors, primary screen, biochemical, fluorogenic H-Leu-NHMec substrate, 1536-well (AID 1619); type: functional
T4 sequence (Q8IL11 whole entry): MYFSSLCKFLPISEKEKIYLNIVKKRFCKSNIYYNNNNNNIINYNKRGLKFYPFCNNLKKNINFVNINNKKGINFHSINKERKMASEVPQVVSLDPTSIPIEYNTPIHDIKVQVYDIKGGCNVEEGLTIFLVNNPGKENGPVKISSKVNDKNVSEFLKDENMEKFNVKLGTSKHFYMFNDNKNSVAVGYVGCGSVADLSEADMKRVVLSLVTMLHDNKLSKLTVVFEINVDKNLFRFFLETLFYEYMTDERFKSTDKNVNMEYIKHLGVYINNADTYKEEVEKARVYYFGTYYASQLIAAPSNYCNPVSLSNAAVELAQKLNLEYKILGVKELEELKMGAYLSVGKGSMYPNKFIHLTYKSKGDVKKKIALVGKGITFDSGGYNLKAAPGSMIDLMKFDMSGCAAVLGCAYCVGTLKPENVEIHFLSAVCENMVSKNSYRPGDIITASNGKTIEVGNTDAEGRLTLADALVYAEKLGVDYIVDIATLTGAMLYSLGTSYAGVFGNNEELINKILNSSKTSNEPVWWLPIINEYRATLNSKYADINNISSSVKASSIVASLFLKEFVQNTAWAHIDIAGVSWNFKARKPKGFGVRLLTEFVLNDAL

cells [6] = type: functional, cell-based
cells [7] = type: functional, cell-based; remark: listed apart in the source
[8] = reduction of Shn3 3'UTR-driven luciferase in osteoblasts – cell-based, Clone20 osteoblasts, firefly luciferase, cherry-picked, dose response (AID 624132); type: functional;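 also: firefly luciferase luminescence from reporter carrying the Shn3 3'UTR in osteoblasts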
[9] = non-specific 3'UTR reporter inhibition in Clone20-Shn3RL – cell-based, Renilla luciferase, cherry-picked, counter-screen for Shn3 inhibitor project, dose response (AID 624133); type: functional
[10] = loss of viability in HepG2 cells – cell-based, CellTiter-Glo, cherry-picked, cytotoxicity control for Shn3 inhibitor project, dose response (AID 624134); type: functional
cells [11] = type: functional
[12] = viability loss in HEK293 cells – cell-based, plate reader, cherry-picked samples, cytotoxicity control, dose response (AID 743446); type: functional
[13] = toxicity toward HepG2 liver cells – cell-based, plate reader, cherry-pick, antagonist series, cytotoxicity control, dose response (AID 743416); type: functional
[14] = blockade of melanocortin 4 receptor signaling – cell-based, plate reader, cherry pick, counter-screen for LGR2 antagonist project, dose response (AID 743444); type: functional;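 also: transfected HEK 293 cells stimulated with alpha-MSH peptide; potency of inhibitors of the alpha-MSH evoked signal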
[15] = A549 cell cytotoxicity, dose response, cytotoxicity control, plate reader, cherry-pick, antagonist series (AID 743412); type: functional, cell-based
[16] = blockers of bursicon-stimulated LGR2 cAMP reporter – cell-based, HEK293, CRE-luciferase reporter, cherry pick, set 2, dose response (AID 743343); type: functional;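 also: transfected cells were stimulated with diluted bursicon conditioned medium after compound addition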
Cytochrome P450 2C9 = Cytochrome P450 2C9 (Homo sapiens, UniProt P11712)
Cytochrome P450 1A2 = target: T5, Cytochrome P450 1A2 (Homo sapiens, UniProt P05177);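 also: PubChem cytochrome P450 panel assay, CYP1A2 panel member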
T5 sequence (P05177 whole entry): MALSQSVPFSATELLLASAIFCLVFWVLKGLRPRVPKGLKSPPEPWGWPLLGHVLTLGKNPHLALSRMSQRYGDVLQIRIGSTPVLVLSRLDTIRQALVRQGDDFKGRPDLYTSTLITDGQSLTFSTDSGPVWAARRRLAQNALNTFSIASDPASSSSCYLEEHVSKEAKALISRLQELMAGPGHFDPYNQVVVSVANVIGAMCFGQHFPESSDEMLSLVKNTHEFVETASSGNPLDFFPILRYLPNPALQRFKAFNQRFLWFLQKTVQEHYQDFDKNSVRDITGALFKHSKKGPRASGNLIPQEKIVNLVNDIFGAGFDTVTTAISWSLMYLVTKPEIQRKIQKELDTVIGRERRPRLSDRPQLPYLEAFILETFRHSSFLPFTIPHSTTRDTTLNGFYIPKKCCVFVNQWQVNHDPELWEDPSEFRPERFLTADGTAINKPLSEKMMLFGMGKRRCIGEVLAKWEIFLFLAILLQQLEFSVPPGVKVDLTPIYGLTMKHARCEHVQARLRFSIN

[17] = viability of PTEN-deleted HCT116 cells – cell-based, HCT116 PTEN knockout, dose response (AID 1047); type: functional;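 also: HCT116 colon tumor cells with PTEN knocked out; cells exposed to compound for 60 hours before readout; potency for loss of cell viability measured by luminescence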
[18] = viability of HCT116 lacking mutant beta-catenin – cell-based, human colon tumor, dose response (AID 1045); type: functional;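 also: HCT116 colon tumor cells with beta catenin knocked out; cells exposed to compound for 60 hours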

Chain of Paired box protein Pax-8 (Q06710 whole entry): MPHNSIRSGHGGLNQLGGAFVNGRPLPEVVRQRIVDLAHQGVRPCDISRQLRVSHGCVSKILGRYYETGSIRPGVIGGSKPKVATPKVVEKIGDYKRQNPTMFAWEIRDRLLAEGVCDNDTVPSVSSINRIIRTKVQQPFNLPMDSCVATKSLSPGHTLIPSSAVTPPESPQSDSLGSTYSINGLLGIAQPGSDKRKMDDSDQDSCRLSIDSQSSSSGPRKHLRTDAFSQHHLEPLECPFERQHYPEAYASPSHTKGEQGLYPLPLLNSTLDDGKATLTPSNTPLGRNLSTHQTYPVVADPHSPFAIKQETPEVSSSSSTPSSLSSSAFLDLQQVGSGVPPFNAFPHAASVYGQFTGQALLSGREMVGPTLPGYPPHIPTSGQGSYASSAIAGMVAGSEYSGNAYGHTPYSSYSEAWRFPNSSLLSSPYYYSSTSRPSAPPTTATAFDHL
Chain of Cytochrome P450 2C9 (P11712 whole entry): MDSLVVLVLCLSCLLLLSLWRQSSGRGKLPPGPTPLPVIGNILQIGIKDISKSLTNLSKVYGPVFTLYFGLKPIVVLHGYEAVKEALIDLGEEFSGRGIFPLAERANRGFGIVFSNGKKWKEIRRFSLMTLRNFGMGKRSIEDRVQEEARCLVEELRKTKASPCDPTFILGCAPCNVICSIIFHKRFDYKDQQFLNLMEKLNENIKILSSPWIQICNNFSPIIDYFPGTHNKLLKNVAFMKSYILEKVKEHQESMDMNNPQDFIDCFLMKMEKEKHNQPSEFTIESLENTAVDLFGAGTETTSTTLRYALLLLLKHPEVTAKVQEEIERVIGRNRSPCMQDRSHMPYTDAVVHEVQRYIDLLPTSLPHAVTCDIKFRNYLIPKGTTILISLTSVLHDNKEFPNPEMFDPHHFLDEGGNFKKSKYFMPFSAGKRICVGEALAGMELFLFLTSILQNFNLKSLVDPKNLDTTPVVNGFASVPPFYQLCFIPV

Structure (SMILES): O=C1c2cccc3cccc(c23)C(=O)N1CCc1ccccc1
- IC50 [1]: > 20 µM (inactive)

Structure (SMILES): CCCCN(CC)CCNC(=O)CNC(=O)Cn1ccc2ccccc2c1=O
- IC50 [2]: 46.5 µM (not active)

Structure (SMILES): CC(C)NC(=S)N/N=C/C1=CCC2CC1C2(C)C (configuration not stated)
- IC50 [2]: 49 µM (not active)

Structure (SMILES): Cc1noc(C)c1S(=O)(=O)N(C)C[C@@H]1OCCCC[C@H](C)Oc2ccc(NS(=O)(=O)c3ccc(Cl)cc3)cc2C(=O)N([C@H](C)CO)C[C@@H]1C
- AC50 (Paired box protein Pax-8): 10.4 µM (active)

Structure (SMILES): C/C(=N\NC(=O)CSCc1ccccc1Cl)c1cc(O)ccc1O
- IC50 [3]: 24.3 µM (active)
- EC50 [4]: > 38 µM (not active)
- EC50 [5]: > 160 µM (inactive)

Structure (SMILES): CCc1ccc(C(=O)CSc2n[nH]c(C)n2)cc1
- IC50 (Leucine aminopeptidase): 63.4 µM (active)

Structure (SMILES): COc1ccccc1[C@@H]1C(c2cccc(C)c2)=NN(c2ccccc2)[C@H]1C(=O)N1CCOC1=O
- IC50 [1]: > 20 µM (inactive)

Structure (SMILES): Cc1sc(NC(=O)C2CC=CCC2C(=O)O)c(C(=O)OC(C)C)c1C (configuration not stated)
- IC50 (Leucine aminopeptidase): 24.1 µM (active)

Structure (SMILES): O=C(NCC(=O)N(Cc1ccco1)C(C(=O)NC1CCCCC1)c1cccnc1)c1cccs1 (configuration not stated)
- EC50 (cells [6]): > 350 µM (not active)
- EC50 (cells [7]): > 350 µM (not active)

Structure (SMILES): CCN1C(=O)c2cccc3c(NC(=O)c4ccc(S(=O)(=O)N(C)C)cc4)ccc1c23
- IC50 [1]: > 20 µM (inactive)

Structure (SMILES): CCC(=O)c1ccc(OCc2ccc(C(=O)c3ccccc3)cc2)cc1
- AC50 [8]: 3.29 µM (active)
- AC50 [9]: 5.86 µM (active)
- AC50 [10]: 26.3 µM (active)

Structure (SMILES): CCCN1C(=O)S/C(=C\c2ccc(N3CCOCC3)o2)C1=O
- IC50 (cells [11]): 21.9 µM (active)
- AC50 [8]: 6.37 µM (active)
- AC50 [9]: 25.8 µM (active)
- AC50 [10]: > 70 µM (inactive)

Structure (SMILES): Cn1c(=O)c2c(ncn2Cc2ccc(Cl)cc2)n(C)c1=O
- IC50 [1]: > 20 µM (inactive)

Structure (SMILES): Cc1nn(C)cc1S(=O)(=O)NCc1ccc2c(c1)OCO2
- EC50 (cells [6]): > 350 µM (not active)
- EC50 (cells [7]): > 350 µM (not active)

Structure (SMILES): Cc1ccc(S(=O)(=O)Nc2ccc3c(c2)CC(=O)N([C@H](C)CO)C[C@@H](C)[C@H](CN(C)Cc2ccc(C(F)(F)F)cc2)O3)cc1
- AC50 [12]: 17.8 µM (active)
- AC50 [13]: 10.5 µM (active)
- AC50 [14]: 14.1 µM (active)
- AC50 [15]: 8.46 µM (active)
- AC50 [16]: 21.6 µM (active)

Structure (SMILES): Cc1ccc(C(=O)O/N=C/c2c(Cl)n(C)c3ccccc23)cc1
- AC50 (Cytochrome P450 2C9): inconclusive
- AC50 (Cytochrome P450 1A2): 1.12 µM (inconclusive)

Structure (SMILES): CC(C)=NOC(=O)c1c(C)noc1-c1snnc1C
- EC50 (cells [6]): > 350 µM (not active)
- EC50 (cells [7]): > 350 µM (not active)

Structure (SMILES): O=C(CSc1nc(-c2ccco2)cc(C(F)(F)F)n1)Nc1ccc(C(=O)N2CCCCC2)cc1
- AC50 [8]: 2.87 µM (active)
- AC50 [9]: 0.774 µM (active)
- EC50 [17]: 62.7 µM (active)
- EC50 [18]: 28.8 µM (active)
- AC50 [10]: 51 µM (active)

Structure (SMILES): COc1ccccc1C#Cc1ccc([C@H]2[C@H](C#N)N(C(=O)C3CCCCC3)[C@H]2CO)cc1
- AC50 [12]: 9.53 µM (active)
- AC50 [13]: 43.7 µM (active)
- AC50 [14]: 5.75 µM (active)
- AC50 [15]: 24.5 µM (active)
- AC50 [16]: 5.49 µM (active)
